Key:
[1] = tested on: A549 lung, PC-3 prostate, c-myc pancreatic tumors; assay: microPET imaging in lung, prostate and pancreatic mouse tumor models; type: in vivo
Text: Human pharmacokinetic studies have confirmed this finding as only 4% of the agent is cleared renally within 4 days of iv injection (majority is excreted via GI route).

Lung NCI H-69 (Oat Cell) = assay: Tumor models examined with NM404 (Table 2); type: in vivo, Nude Mouse; conditions: Small cell carcinoma
Text: (§1) NM404 has now been evaluated in 27 animal tumor models, including several lung, and it is clear that once the agent enters tumor cells, it reaches a metabolic dead end and becomes trapped. […] NM404 is also retained in spontaneous murine lung tumors (FIG. 13). Using ^125I-labeled NM404, the inventors have been able to image mammary and prostate tumors in mice in excess of 60 days. […] Imaging and tissue distribution studies performed in mouse models aimed at determining the uptake characteristics in a wide variety of tumor models are summarized in Table 2.
(§2) Although tumor retention can be explained by a lack of metabolic phospholipase enzymes in the tumor cell membranes, the exact mechanism of tumor cell uptake is unknown. […] The inventors are currently evaluating the selectivity of NM404 in a unique mouse tumor model developed at Wisconsin, wherein both preneoplastic hyperplasias and malignant adenocarcinomas form spontaneously in the mammary gland. […] If this initial observation is validated, then via genomic and or proteomic analysis the inventors may be able to identify a key genetic difference between malignant tumors and their non malignant predecessor cells. This could identify a completely new molecular therapeutic target that may be universal for all types of cancer.

Melanoma A-375 = assay: Tumor models examined with NM404 (Table 2); type: in vivo, Nude Mouse
Text: as §1, §2

Ovarian HTB-77 = assay: Tumor models examined with NM404 (Table 2); type: in vivo, Nude Mouse; conditions: Adenocarcinoma
Text: as §1, §2

`C[N+](C)(C)CCOP(=O)([O-])OCCCCCCCCCCCCCCCCCCc1ccc(I)cc1` [NM-404, 18-(4-iodophenyl)-octadecylphosphocholine] was tested, and the “time to tumor uptake” value ([1]; after injection) was ≤ 6 h, the tumor avidity ([1]; mouse, in vivo) was “significant tumor avidity regardless of location in the body” and the “NM404 Tumor Localization” value (Lung NCI H-69 (Oat Cell)) was “Yes (Localization defined as >5% injected dose per gram tumor basis based on tissue distribution data)”. The “NM404 Tumor Localization” value (Melanoma A-375) was “Yes (Localization defined as >5% injected dose per gram tumor basis based on tissue distribution data)” and the “NM404 Tumor Localization” value (Ovarian HTB-77) was “Yes (Localization defined as >5% injected dose per gram tumor basis based on tissue distribution data)”.

Reference: patent US9579406B2, “Phospholipid ether analogs as agents for detecting and locating cancer, and methods thereof” (Cellectar, Inc., priority 2004, dated 2017)
